According to the kinase profiling compilation of Christmann-Franck et al. (2016):
Several values for one entry are separate records, joined by “and”; a condition that tells them apart may be missing. Equal entries are not always repeated.

Columns and labels:
Assay in all cases: radiometric filter-binding kinase assay, Kinase HotSpot
Settings in all cases: compound 0.5 µM; ATP 10 µM
ACVRL1 (human) = ACVRL1 (human) (UniProt P37023)
AKT1 (human) = AKT1 (human) (UniProt P31749)
ALK (human) = ALK (human) (UniProt Q9UM73)
BLK (human) = BLK (human) (UniProt P51451)
CAMKK1 (human) = CAMKK1 (human) (UniProt Q8N5S9)
CAMKK2 (human) = CAMKK2 (human) (UniProt Q96RR4)
CDK1 CCNB1 (human) = CDK1 CCNB1 (human) (UniProt P06493+P14635)
CDK5 CDK5R1 p25 (human) = CDK5 CDK5R1 p25 (human) (UniProt Q00535+Q15078)
CSF1R (human) = CSF1R (human) (UniProt P07333)
DCLK2 (human) = DCLK2 (human) (UniProt Q8N568)
DSTYK (human) = DSTYK (human) (UniProt Q6XUX3)
EPHA1 (human) = EPHA1 (human) (UniProt P21709)
EPHA7 (human) = EPHA7 (human) (UniProt Q15375)
EPHB3 (human) = EPHB3 (human) (UniProt P54753)
EPHB4 (human) = EPHB4 (human) (UniProt P54760)
FGFR4 (human) = FGFR4 (human) (UniProt P22455)
GRK4 (human) = GRK4 (human) (UniProt P32298)
HIPK1 (human) = HIPK1 (human) (UniProt Q86Z02)
ITK (human) = ITK (human) (UniProt Q08881)
LYN (human) = LYN (human) (UniProt P07948)
MAP2K1 (human) = MAP2K1 (human) (UniProt Q02750)
MAP2K2 (human) = MAP2K2 (human) (UniProt P36507)
MAP3K11 (human) = MAP3K11 (human) (UniProt Q16584)
MAP3K14 (human) = MAP3K14 (human) (UniProt Q99558)
MAP3K2 (human) = MAP3K2 (human) (UniProt Q9Y2U5)
MAPK1 (human) = MAPK1 (human) (UniProt P28482)
MAPK9 (human) = MAPK9 (human) (UniProt P45984)
MARK4 (human) = MARK4 (human) (UniProt Q96L34)
MINK1 (human) = MINK1 (human) (UniProt Q8N4C8)
NEK6 (human) = NEK6 (human) (UniProt Q9HC98)
OXSR1 (human) = OXSR1 (human) (UniProt O95747)
PHKG1 (human) = PHKG1 (human) (UniProt Q16816)
PIM1 (human) = PIM1 (human) (UniProt P11309)
PIM3 (human) = PIM3 (human) (UniProt Q86V86)
PLK1 (human) = PLK1 (human) (UniProt P53350)
PRKACA (human) = PRKACA (human) (UniProt P17612)
PTK2B (human) = PTK2B (human) (UniProt Q14289)
RAF1 (human) = RAF1 (human) (UniProt P04049)
SGK2 (human) = SGK2 (human) (UniProt Q9HBY8)
SIK2 (human) = SIK2 (human) (UniProt Q9H0K1)
TAOK1 (human) = TAOK1 (human) (UniProt Q7L7X3)
BRSK1 (human) = BRSK1 (human) (UniProt Q8TDC3)

Chain of CDK1 CCNB1 (human) (P06493 whole entry, looked up): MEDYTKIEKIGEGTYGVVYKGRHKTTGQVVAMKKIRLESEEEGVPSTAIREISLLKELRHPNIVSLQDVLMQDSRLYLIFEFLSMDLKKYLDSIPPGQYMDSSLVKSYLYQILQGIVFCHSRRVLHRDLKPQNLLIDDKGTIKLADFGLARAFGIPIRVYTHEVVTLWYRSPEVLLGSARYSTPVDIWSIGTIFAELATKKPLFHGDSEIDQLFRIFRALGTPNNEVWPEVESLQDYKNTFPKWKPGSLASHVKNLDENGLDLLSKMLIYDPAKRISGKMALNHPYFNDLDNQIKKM
Chain of CDK1 CCNB1 (human) (P14635 whole entry, looked up): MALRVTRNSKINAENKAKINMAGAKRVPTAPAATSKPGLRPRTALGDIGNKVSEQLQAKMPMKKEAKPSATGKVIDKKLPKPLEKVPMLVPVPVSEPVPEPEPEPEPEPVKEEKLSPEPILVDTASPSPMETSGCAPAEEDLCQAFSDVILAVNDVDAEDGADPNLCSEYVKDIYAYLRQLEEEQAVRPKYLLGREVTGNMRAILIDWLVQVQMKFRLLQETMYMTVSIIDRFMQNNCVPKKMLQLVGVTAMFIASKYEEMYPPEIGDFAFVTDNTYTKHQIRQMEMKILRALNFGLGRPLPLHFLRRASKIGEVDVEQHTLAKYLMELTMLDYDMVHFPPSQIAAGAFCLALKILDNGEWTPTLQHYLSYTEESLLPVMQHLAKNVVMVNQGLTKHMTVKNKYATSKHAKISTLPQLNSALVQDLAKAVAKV
Chain of FGFR4 (human) (P22455 whole entry, looked up): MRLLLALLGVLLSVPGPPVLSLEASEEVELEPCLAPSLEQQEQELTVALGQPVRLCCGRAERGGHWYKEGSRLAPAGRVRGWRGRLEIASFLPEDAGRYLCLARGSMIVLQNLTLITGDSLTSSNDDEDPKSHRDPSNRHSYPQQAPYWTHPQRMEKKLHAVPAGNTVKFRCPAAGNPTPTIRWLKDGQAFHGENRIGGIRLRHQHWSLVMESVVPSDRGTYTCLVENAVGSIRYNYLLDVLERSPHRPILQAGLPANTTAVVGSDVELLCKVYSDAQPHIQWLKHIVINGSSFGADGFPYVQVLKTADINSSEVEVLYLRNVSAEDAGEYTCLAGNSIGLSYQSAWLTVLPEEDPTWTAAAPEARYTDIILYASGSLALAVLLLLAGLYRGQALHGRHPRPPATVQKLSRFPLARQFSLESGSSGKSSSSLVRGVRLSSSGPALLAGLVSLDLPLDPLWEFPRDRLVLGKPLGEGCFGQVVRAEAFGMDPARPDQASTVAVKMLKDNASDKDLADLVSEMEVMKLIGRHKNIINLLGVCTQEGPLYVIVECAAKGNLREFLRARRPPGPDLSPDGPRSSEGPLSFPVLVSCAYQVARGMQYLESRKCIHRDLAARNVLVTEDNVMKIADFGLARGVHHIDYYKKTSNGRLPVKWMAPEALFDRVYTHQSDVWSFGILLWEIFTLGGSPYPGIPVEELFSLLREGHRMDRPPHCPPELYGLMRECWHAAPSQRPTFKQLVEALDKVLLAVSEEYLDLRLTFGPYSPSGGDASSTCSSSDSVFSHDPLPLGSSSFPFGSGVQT
Chain of MAP3K2 (human) (Q9Y2U5 whole entry, looked up): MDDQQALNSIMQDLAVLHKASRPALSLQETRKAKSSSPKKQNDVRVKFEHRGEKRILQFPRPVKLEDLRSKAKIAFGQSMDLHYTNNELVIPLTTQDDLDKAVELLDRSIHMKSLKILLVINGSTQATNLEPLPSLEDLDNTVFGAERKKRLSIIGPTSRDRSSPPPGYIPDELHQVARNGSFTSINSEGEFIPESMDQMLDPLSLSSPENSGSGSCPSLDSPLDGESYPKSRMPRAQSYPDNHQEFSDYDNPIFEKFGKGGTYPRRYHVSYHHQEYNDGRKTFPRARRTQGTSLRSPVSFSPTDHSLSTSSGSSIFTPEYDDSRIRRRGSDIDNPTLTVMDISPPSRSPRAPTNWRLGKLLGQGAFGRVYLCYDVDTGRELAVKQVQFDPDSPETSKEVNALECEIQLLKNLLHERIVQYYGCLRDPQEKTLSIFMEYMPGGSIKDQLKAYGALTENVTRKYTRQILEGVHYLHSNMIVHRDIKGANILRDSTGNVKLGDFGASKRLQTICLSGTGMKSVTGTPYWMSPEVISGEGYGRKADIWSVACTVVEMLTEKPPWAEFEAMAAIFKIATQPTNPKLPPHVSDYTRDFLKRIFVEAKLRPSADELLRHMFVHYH
Chain of EPHB3 (human) (P54753 whole entry, looked up): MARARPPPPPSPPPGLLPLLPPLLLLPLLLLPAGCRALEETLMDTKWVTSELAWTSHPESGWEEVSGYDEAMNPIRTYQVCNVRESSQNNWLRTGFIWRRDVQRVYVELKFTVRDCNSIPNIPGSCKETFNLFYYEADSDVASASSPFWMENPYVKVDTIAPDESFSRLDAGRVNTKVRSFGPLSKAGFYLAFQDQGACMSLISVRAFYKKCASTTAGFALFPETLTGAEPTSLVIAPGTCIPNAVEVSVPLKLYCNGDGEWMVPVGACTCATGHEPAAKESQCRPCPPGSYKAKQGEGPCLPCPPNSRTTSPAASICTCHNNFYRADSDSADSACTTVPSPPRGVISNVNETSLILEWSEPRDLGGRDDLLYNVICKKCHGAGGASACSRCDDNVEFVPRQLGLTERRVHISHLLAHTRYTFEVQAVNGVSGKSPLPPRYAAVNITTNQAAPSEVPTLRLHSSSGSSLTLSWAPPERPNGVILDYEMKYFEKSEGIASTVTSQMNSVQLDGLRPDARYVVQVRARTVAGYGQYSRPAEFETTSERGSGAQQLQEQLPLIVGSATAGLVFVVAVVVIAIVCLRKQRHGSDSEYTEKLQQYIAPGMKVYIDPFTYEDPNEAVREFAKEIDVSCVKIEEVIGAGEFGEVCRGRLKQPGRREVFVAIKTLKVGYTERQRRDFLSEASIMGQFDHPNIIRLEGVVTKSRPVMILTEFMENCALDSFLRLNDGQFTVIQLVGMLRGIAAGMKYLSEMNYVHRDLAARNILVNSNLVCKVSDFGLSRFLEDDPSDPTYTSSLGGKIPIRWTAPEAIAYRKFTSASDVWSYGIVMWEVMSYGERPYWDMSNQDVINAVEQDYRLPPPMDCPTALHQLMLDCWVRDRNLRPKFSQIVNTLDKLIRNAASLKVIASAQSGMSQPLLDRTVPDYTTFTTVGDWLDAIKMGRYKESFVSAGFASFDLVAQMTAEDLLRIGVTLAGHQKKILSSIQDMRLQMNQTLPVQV
Chain of MAP2K2 (human) (P36507 whole entry, looked up): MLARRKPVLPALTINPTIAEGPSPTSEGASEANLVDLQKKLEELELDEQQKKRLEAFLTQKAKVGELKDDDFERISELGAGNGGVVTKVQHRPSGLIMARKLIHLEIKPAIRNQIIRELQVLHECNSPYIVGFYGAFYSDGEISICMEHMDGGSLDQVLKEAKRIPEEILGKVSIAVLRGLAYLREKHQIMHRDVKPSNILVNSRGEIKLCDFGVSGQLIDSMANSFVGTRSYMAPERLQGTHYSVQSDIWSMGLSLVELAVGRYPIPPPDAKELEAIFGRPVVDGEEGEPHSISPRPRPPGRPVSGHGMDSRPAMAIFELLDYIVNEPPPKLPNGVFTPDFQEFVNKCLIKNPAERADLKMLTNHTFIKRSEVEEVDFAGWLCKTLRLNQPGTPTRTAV
Chain of EPHA1 (human) (P21709 whole entry, looked up): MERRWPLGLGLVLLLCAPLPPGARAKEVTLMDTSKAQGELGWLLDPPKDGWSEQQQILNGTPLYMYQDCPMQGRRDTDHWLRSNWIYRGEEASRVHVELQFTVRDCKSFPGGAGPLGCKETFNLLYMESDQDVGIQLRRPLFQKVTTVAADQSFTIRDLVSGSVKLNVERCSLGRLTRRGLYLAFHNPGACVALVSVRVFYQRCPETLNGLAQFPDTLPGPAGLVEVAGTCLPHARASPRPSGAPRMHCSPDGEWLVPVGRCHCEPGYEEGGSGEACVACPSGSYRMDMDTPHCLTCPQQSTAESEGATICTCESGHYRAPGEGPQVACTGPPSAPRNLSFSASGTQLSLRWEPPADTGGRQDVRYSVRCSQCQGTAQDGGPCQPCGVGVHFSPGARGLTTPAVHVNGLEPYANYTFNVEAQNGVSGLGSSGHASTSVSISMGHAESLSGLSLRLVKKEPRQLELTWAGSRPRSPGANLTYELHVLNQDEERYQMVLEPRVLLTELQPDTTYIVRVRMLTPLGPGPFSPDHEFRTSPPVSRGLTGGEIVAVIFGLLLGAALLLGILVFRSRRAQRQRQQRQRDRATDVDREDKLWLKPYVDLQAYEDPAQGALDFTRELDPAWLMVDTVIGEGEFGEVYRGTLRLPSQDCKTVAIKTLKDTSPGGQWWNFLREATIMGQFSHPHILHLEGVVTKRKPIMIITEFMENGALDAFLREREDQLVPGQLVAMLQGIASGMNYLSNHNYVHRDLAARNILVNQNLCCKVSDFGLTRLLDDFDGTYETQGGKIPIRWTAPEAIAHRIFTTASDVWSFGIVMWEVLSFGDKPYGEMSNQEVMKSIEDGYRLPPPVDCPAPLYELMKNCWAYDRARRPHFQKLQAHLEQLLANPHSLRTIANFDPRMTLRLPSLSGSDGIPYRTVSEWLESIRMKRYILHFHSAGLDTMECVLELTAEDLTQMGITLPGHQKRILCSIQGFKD
Chain of CAMKK1 (human) (Q8N5S9 whole entry, looked up): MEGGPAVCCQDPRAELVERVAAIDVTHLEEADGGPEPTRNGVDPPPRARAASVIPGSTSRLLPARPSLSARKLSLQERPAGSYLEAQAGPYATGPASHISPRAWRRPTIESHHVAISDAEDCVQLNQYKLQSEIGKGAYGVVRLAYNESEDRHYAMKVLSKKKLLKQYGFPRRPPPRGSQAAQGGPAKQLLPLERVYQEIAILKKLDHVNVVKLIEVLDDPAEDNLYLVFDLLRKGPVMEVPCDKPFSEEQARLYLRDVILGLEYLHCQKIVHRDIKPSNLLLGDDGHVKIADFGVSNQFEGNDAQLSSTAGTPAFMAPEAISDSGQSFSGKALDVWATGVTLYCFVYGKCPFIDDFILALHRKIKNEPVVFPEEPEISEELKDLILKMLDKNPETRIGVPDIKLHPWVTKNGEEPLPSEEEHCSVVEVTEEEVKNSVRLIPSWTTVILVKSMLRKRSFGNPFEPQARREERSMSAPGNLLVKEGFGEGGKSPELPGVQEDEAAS

## Cc1cc(Nc2nc(-c3ccccc3)nc3ccccc23)n[nH]1
ACVRL1 (human)
  residual activity: 115%
AKT1 (human)
  residual activity: 107%
ALK (human)
  residual activity: 75.9%
BLK (human)
  residual activity: 56.2%
CAMKK1 (human)
  residual activity: 90.7%
CAMKK2 (human)
  residual activity: 88.6%
CDK1 CCNB1 (human)
  residual activity: 76%
CDK5 CDK5R1 p25 (human)
  residual activity: 98.7%
CSF1R (human)
  residual activity: 33.1%
DCLK2 (human)
  residual activity: 87.4%
DSTYK (human)
  residual activity: 86%
EPHA1 (human)
  residual activity: 69.9%
EPHA7 (human)
  residual activity: 72.5%
EPHB3 (human)
  residual activity: 86.5%
EPHB4 (human)
  residual activity: 91.1%
FGFR4 (human)
  residual activity: 81.9%
GRK4 (human)
  residual activity: 92.1%
HIPK1 (human)
  residual activity: 96.3%
ITK (human)
  residual activity: 45.4%
LYN (human)
  residual activity: 79.9% and 88.7%
MAP2K1 (human)
  residual activity: 91.6%
MAP2K2 (human)
  residual activity: 102%
MAP3K11 (human)
  residual activity: 18.1%
MAP3K14 (human)
  residual activity: 93.5%
MAP3K2 (human)
  residual activity: 78.4%
MAPK1 (human)
  residual activity: 89.3%
MAPK9 (human)
  residual activity: 92.4%
MARK4 (human)
  residual activity: 83.5%
MINK1 (human)
  residual activity: 35.6%
NEK6 (human)
  residual activity: 93.9%
OXSR1 (human)
  residual activity: 98.1%
PHKG1 (human)
  residual activity: 71.7%
PIM1 (human)
  residual activity: 83.3%
PIM3 (human)
  residual activity: 130%
PLK1 (human)
  residual activity: 97.1%
PRKACA (human)
  residual activity: 97.2%
PTK2B (human)
  residual activity: 61.4%
RAF1 (human)
  residual activity: 99.8%
SGK2 (human)
  residual activity: 99.7%
SIK2 (human)
  residual activity: 99.6%
TAOK1 (human)
  residual activity: 115%

## CCc1nc(-c2ccc(OC)cc2)[nH]c1-c1ccncc1
ACVRL1 (human)
  residual activity: 101%
ALK (human)
  residual activity: 106%
BLK (human)
  residual activity: 105%
BRSK1 (human)
  residual activity: 101%
CAMKK1 (human)
  residual activity: 122%
CAMKK2 (human)
  residual activity: 109%
CDK1 CCNB1 (human)
  residual activity: 102%
CDK5 CDK5R1 p25 (human)
  residual activity: 95.9%
CSF1R (human)
  residual activity: 100%
DCLK2 (human)
  residual activity: 103%
DSTYK (human)
  residual activity: 99.6%
EPHA1 (human)
  residual activity: 116%
EPHA7 (human)
  residual activity: 91.6%
EPHB3 (human)
  residual activity: 107%
EPHB4 (human)
  residual activity: 90.3%
FGFR4 (human)
  residual activity: 95.9%
GRK4 (human)
  residual activity: 99.3%
HIPK1 (human)
  residual activity: 97.7%
ITK (human)
  residual activity: 97.4%
LYN (human)
  residual activity: 101% and 103%
MAP2K1 (human)
  residual activity: 97.8%
MAP2K2 (human)
  residual activity: 105%
MAP3K11 (human)
  residual activity: 96.7%
MAP3K14 (human)
  residual activity: 118%
MAP3K2 (human)
  residual activity: 98.2%
MAPK1 (human)
  residual activity: 97.2%
MAPK9 (human)
  residual activity: 101%
MARK4 (human)
  residual activity: 96.4%
MINK1 (human)
  residual activity: 103%
NEK6 (human)
  residual activity: 95.3%
OXSR1 (human)
  residual activity: 97.7%
PHKG1 (human)
  residual activity: 97%
PIM1 (human)
  residual activity: 104%
PIM3 (human)
  residual activity: 112%
PLK1 (human)
  residual activity: 103%
PRKACA (human)
  residual activity: 100%
PTK2B (human)
  residual activity: 94.6%
RAF1 (human)
  residual activity: 93.4%
SGK2 (human)
  residual activity: 103%
SIK2 (human)
  residual activity: 88.3%
TAOK1 (human)
  residual activity: 104%

## FC(F)(F)c1ccc(/C=C/c2nc(COc3ccc(CCCCn4ccnn4)cc3)co2)cc1
ACVRL1 (human)
  residual activity: 103%
AKT1 (human)
  residual activity: 93.2%
ALK (human)
  residual activity: 108%
BLK (human)
  residual activity: 102%
BRSK1 (human)
  residual activity: 103%
CAMKK1 (human)
  residual activity: 96.7%
CAMKK2 (human)
  residual activity: 101%
CDK1 CCNB1 (human)
  residual activity: 93.8%
CSF1R (human)
  residual activity: 103%
DCLK2 (human)
  residual activity: 102%
DSTYK (human)
  residual activity: 88.8%
EPHA1 (human)
  residual activity: 97.2%
EPHA7 (human)
  residual activity: 95.2%
EPHB3 (human)
  residual activity: 94.9%
EPHB4 (human)
  residual activity: 92.2%
FGFR4 (human)
  residual activity: 88.3%
GRK4 (human)
  residual activity: 102%
HIPK1 (human)
  residual activity: 101%
ITK (human)
  residual activity: 102%
LYN (human)
  residual activity: 104% and 95.8%
MAP2K1 (human)
  residual activity: 120%
MAP2K2 (human)
  residual activity: 114%
MAP3K11 (human)
  residual activity: 99.1%
MAP3K14 (human)
  residual activity: 95.8%
MAP3K2 (human)
  residual activity: 102%
MAPK1 (human)
  residual activity: 88.6%
MAPK9 (human)
  residual activity: 106%
MARK4 (human)
  residual activity: 97.9%
MINK1 (human)
  residual activity: 96.8%
NEK6 (human)
  residual activity: 92.6%
OXSR1 (human)
  residual activity: 99.7%
PHKG1 (human)
  residual activity: 92.9%
PIM1 (human)
  residual activity: 102%
PIM3 (human)
  residual activity: 107%
PLK1 (human)
  residual activity: 98.3%
PRKACA (human)
  residual activity: 101%
PTK2B (human)
  residual activity: 103%
RAF1 (human)
  residual activity: 97.1%
SGK2 (human)
  residual activity: 103%
SIK2 (human)
  residual activity: 103%
TAOK1 (human)
  residual activity: 102%
